The text below walks through data of PubChem BioAssay AID588689 (Southern Research Specialized Biocontainment Screening …, 2011).

The target in this test is Genome polyprotein (Dengue virus type 2 (strain 16681-PDK53)) (UniProt P29991). Briefly: flavivirus cap methylation enzyme inhibition – biochemical, confirmation dose response, primary screen (AID 588689). Conditions: Dengue-2 NS5 methyltransferase capping enzyme assay.
Sequence of Genome polyprotein (Dengue virus type 2 (strain 16681-PDK53)) (P29991 whole entry, looked up): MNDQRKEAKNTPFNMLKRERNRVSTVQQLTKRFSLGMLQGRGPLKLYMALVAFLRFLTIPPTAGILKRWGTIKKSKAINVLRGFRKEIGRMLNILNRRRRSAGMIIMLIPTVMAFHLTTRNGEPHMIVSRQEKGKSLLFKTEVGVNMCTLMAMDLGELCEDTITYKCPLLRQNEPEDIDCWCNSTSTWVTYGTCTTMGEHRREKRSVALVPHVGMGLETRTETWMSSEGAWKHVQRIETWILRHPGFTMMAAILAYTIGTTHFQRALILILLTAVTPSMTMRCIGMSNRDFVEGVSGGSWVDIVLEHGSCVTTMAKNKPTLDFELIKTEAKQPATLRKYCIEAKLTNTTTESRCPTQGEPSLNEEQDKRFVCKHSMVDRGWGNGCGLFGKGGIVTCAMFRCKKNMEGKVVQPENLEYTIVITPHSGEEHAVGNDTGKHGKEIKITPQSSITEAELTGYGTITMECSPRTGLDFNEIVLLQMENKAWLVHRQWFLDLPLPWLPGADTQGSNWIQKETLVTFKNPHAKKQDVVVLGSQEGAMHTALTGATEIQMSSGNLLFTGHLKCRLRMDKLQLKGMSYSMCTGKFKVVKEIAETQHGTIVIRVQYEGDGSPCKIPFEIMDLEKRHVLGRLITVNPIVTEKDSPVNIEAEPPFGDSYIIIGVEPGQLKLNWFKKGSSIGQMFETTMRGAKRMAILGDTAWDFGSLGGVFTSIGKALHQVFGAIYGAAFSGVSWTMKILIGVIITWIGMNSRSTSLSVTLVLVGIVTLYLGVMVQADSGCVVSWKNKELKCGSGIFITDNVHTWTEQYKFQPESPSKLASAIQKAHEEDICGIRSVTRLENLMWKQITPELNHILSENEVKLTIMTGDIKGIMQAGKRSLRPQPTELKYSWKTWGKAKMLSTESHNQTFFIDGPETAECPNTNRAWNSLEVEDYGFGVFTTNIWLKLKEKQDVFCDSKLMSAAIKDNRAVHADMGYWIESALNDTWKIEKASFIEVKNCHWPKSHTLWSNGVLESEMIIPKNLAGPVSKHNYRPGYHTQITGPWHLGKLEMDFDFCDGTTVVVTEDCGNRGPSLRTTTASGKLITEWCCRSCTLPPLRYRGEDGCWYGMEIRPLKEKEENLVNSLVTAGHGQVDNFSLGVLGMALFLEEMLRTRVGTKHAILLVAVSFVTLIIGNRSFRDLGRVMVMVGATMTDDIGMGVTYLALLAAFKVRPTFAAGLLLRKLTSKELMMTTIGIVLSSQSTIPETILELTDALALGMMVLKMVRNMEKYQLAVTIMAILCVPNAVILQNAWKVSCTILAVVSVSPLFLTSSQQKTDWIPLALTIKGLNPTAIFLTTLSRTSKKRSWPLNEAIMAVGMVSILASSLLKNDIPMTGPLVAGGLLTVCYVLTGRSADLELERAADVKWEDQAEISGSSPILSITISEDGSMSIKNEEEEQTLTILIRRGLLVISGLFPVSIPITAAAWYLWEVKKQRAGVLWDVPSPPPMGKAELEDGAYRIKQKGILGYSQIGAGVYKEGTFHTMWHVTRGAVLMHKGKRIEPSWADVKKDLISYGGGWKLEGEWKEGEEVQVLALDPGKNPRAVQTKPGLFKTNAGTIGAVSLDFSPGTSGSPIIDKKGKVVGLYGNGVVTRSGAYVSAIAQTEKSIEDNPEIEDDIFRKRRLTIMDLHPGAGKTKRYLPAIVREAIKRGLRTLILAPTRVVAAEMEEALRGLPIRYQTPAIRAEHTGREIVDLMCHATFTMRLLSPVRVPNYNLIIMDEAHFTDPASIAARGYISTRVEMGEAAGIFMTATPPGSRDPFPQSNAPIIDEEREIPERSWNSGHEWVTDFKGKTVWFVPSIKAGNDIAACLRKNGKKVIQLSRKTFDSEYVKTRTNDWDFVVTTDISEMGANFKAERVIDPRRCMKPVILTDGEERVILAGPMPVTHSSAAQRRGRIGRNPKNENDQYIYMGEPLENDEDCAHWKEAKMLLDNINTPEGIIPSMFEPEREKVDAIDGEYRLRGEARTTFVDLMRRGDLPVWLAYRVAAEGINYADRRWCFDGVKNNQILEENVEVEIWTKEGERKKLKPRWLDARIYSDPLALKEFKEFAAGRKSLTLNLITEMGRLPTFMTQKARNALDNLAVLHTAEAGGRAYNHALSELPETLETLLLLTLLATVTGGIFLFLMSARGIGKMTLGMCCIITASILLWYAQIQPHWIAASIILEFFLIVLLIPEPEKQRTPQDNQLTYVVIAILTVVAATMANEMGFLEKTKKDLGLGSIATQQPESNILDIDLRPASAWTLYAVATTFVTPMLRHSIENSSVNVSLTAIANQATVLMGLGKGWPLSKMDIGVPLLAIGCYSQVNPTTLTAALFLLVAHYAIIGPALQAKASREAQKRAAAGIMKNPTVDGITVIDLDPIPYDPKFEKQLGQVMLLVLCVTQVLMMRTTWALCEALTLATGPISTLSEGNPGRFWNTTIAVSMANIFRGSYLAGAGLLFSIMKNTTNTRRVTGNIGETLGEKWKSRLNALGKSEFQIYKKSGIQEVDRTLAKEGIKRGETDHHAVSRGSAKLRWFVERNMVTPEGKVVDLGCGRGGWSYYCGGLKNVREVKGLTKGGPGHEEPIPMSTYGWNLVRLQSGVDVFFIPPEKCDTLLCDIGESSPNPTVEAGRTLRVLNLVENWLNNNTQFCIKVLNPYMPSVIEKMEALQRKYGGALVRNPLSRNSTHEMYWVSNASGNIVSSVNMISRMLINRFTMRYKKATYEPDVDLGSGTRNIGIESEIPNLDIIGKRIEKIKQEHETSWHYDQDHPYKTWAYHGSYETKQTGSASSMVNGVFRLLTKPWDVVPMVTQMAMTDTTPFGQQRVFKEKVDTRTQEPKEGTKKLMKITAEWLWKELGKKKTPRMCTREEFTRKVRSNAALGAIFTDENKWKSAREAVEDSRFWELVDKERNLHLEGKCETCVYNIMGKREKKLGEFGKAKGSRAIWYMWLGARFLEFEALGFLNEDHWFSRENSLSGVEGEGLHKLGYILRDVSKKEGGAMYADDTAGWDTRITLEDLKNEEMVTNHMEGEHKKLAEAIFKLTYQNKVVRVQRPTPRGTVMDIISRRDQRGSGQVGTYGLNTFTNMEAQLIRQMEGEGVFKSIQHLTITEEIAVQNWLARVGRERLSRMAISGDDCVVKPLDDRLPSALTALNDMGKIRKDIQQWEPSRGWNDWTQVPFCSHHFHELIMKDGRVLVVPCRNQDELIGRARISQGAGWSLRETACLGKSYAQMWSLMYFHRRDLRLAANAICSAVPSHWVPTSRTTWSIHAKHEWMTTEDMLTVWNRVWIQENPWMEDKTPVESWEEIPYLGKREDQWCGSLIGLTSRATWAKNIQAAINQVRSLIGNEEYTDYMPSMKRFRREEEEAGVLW

With `CCCCC1(C)OC(=O)C(=Cc2ccc(-c3ccc(Cl)c(C(=O)O)c3)o2)C(=O)O1` (configuration not stated), the IC50 (commonly the midpoint of a concentration-inhibition curve) was 14 µM. As to `C=Cc1c(C)c2cc3[nH]c(cc4nc(cc5nc(cc1[nH]2)C(C)=C5CCC(=O)O)C(CCC(=O)O)=C4C)c(C)c3C=C`, the IC50 is 34.6 µM.
